± gives the expanded uncertainty stated by the source.
How the values were obtained:
[1] = wn = mass fraction of the nth substance listed; details: for surface tension liquid-gas: Maximal bubble pressure; for mass density / viscosity: 101 kPa, Liquid; for mass density: Pycnometric method
[2] = molar heat capacity at constant pressure; wn = mass fraction of the nth substance listed; details: 101 kPa, Liquid, Small sample (50 mg) DSC

N[C@@H](CO)C(=O)[O-].[K+] [potassium L-serinate] + O
Details	mass density, [1] [kg/m3]	molar heat capacity at constant pressure, [2] [J/K/mol]	surface tension liquid-gas, [1] [mN/m]	viscosity, [1] [mPa·s]
298.15 K, w1 = 0.072	1034.7 ± 0.9	–	73.2 ± 0.6	1.121 ± 0.034
298.15 K, w1 = 0.143	1068.7 ± 1.1	–	74.1 ± 0.6	1.372 ± 0.039
298.15 K, w1 = 0.286	1137 ± 1.6	–	77.9 ± 0.7	1.913 ± 0.052
298.15 K, w1 = 0.43	1201.2 ± 2.2	–	80.4 ± 0.8	2.757 ± 0.077
298.15 K, w1 = 0.573	1263.5 ± 2.8	–	82.2 ± 0.8	4.202 ± 0.12
303.15 K, w1 = 0.072	1033.1 ± 0.9	74.59 ± 1.7	–	1.032 ± 0.032
303.15 K, w1 = 0.143	1066.7 ± 1.1	76.59 ± 1.9	–	1.261 ± 0.037
303.15 K, w1 = 0.286	1134.4 ± 1.7	80.47 ± 1.9	–	1.736 ± 0.048
303.15 K, w1 = 0.43	1198.8 ± 2.2	88.33 ± 2	–	2.485 ± 0.069
303.15 K, w1 = 0.573	1260.5 ± 2.8	98.9 ± 2.2	–	3.685 ± 0.1
308.15 K, w1 = 0.072	–	75.17 ± 1.7	–	–
308.15 K, w1 = 0.143	–	77.62 ± 1.9	–	–
308.15 K, w1 = 0.286	–	81.19 ± 1.9	–	–
308.15 K, w1 = 0.43	–	88.91 ± 2	–	–
308.15 K, w1 = 0.573	–	99.62 ± 2.2	–	–
313.15 K, w1 = 0.072	1028.8 ± 0.9	75.56 ± 1.7	–	0.87 ± 0.029
313.15 K, w1 = 0.143	1061.9 ± 1.1	78.03 ± 1.9	–	1.043 ± 0.032
313.15 K, w1 = 0.286	1129.1 ± 1.6	81.67 ± 1.9	–	1.402 ± 0.041
313.15 K, w1 = 0.43	1193.1 ± 2.2	89.77 ± 2	–	1.996 ± 0.057
313.15 K, w1 = 0.573	1254.4 ± 2.8	100.35 ± 2.5	–	2.927 ± 0.084
318.15 K, w1 = 0.072	–	76.13 ± 1.7	–	–
318.15 K, w1 = 0.143	–	78.65 ± 1.9	–	–
318.15 K, w1 = 0.286	–	82.15 ± 1.9	–	–
318.15 K, w1 = 0.43	–	90.35 ± 2	–	–
318.15 K, w1 = 0.573	–	101.07 ± 2.5	–	–
323.15 K, w1 = 0.072	1024.6 ± 0.9	76.52 ± 1.7	–	0.73 ± 0.026
323.15 K, w1 = 0.143	1056.9 ± 1.1	79.06 ± 1.9	–	0.896 ± 0.029
323.15 K, w1 = 0.286	1123.8 ± 1.6	82.63 ± 1.9	–	1.14 ± 0.035
323.15 K, w1 = 0.43	1187.5 ± 2.2	91.22 ± 2	–	1.767 ± 0.052
323.15 K, w1 = 0.573	1248.5 ± 2.8	101.43 ± 2.5	–	2.556 ± 0.073
328.15 K, w1 = 0.072	–	76.9 ± 1.7	–	–
328.15 K, w1 = 0.143	–	79.47 ± 1.9	–	–
328.15 K, w1 = 0.286	–	83.35 ± 1.9	–	–
328.15 K, w1 = 0.43	–	91.79 ± 2	–	–
328.15 K, w1 = 0.573	–	102.15 ± 2.5	–	–
333.15 K, w1 = 0.072	1019.1 ± 0.9	77.29 ± 1.7	–	0.645 ± 0.024
333.15 K, w1 = 0.143	1051.5 ± 1.1	80.09 ± 1.9	–	0.806 ± 0.028
333.15 K, w1 = 0.286	1118 ± 1.6	83.83 ± 1.9	–	0.989 ± 0.032
333.15 K, w1 = 0.43	1181.6 ± 2.2	92.37 ± 2	–	1.56 ± 0.047
333.15 K, w1 = 0.573	1242.3 ± 2.8	102.51 ± 2.5	–	2.278 ± 0.066
338.15 K, w1 = 0.072	–	77.67 ± 1.7	–	–
338.15 K, w1 = 0.143	–	80.5 ± 1.9	–	–
338.15 K, w1 = 0.286	–	84.31 ± 1.9	–	–
338.15 K, w1 = 0.43	–	92.95 ± 2	–	–
338.15 K, w1 = 0.573	–	102.87 ± 2.5	–	–
343.15 K, w1 = 0.072	1013.9 ± 1	78.06 ± 1.7	–	0.564 ± 0.023
343.15 K, w1 = 0.143	1046.3 ± 1.1	81.12 ± 1.9	–	0.671 ± 0.025
343.15 K, w1 = 0.286	1112.5 ± 1.6	84.79 ± 1.9	–	0.855 ± 0.029
343.15 K, w1 = 0.43	1175.9 ± 2.2	93.24 ± 2	–	1.423 ± 0.044
343.15 K, w1 = 0.573	1236.3 ± 2.7	103.23 ± 2.5	–	2.063 ± 0.06
348.18 K, w1 = 0.072	–	78.25 ± 1.7	–	–
348.18 K, w1 = 0.143	–	81.53 ± 1.9	–	–
348.18 K, w1 = 0.286	–	85.27 ± 1.9	–	–
348.18 K, w1 = 0.43	–	93.81 ± 2.3	–	–
348.18 K, w1 = 0.573	–	103.23 ± 2.5	–	–
353.15 K, w1 = 0.072	1007.8 ± 1	78.44 ± 1.7	–	0.494 ± 0.022
353.15 K, w1 = 0.143	1039.6 ± 1.1	81.74 ± 1.9	–	0.564 ± 0.023
353.15 K, w1 = 0.286	1106 ± 1.7	85.51 ± 1.9	–	0.732 ± 0.027
353.15 K, w1 = 0.43	1169.6 ± 2.2	94.1 ± 2.3	–	1.255 ± 0.041
353.15 K, w1 = 0.573	1229.6 ± 2.7	104.68 ± 2.5	–	1.919 ± 0.058
